Columns and labels:
HCT-116 cells = experiment: MTT antiproliferative assay, HCT-116 cells; format: cell-based, human; conditions: exposure for 48 h
Experimental: The in vitro antiproliferative activities of new target compounds 6a–6g, 9a–9i, 10a–10j, 11a–11j, and 14a–14d were evaluated against four human cancer cell lines (MGC-803, PC-3, HCT-116, and MCF-7) using MTT assay and 5-FU as a positive drug. The following Tables 1–[4] depicted the results of in vitro antiproliferative activity.
Cell lines used were cultured in humidified incubator in a humidified atmosphere of 5% CO2 and 95% air. The RPMI-1640 medium was supplemented with 10% foetal bovine serum, penicillin (100 U/ml) and streptomycin (0.1 mg/ml).
Cell lines were seeded into 96-well plates and incubated for 24 h. Then cells were treated with different concentrations of compounds. And after another 48 h, MTT reagent (20 μL per well) was added to each well and then incubated at 37 °C for 4 h. After the suspension was discarded, formazan was then dissolved with DMSO. Absorbencies of formazan solution were measured at 490 nm. The IC50 values of tested compounds were calculated by SPSS version 17.0.

MGC-803 cells = experiment: Annexin V-FITC/PI cell apoptosis assay, MGC-803 cells; format: cell-based, human; conditions: MGC-803, high dose, 48 h
Experimental: Bcl-2 regulated by the Hippo/YAP plays an important role in cell apoptosis. Therefore, we next examined the effects of compound 9i on cell apoptosis. MGC-803 and SGC-7901 cells were treated with compound 9i for 48 h, as shown in Figures 5(A,B), the nuclei of gastric cancer are dense and fragmented, and cells became round, small, and was induced to die. To determine the influence of compound 9i on cell death, MGC-803 and SGC-7901 cells treated with compound 9i were stained with Annexin V-FITC/PI. As shown in Figure 5(C), the high dose compound 9i treatment group induced over 60% of cell apoptosis at 48 h. As shown in Figure 5(D), some other apoptosis-related proteins were also regulated by compound 9i in MGC-803 and SGC-7901 cells. Compound 9i caused dose-dependent decreases of anti-apoptosis proteins c-IAP and Mcl-1. […] Mitochondrial membrane potential depolarisation and translocation from the mitochondria to the cytoplasm of cytochrome c are two key steps involved in the intrinsic apoptosis pathway. As shown in Figures 5(F–H), compound 9i depolarised mitochondrial membrane potential and induced the translocation of cytochrome c.
Figure 5. Compound 9i induced apoptosis in MGC-803 and SGC-7901 cells. Density ratios relative to β-Actin were shown on the top of each Western blotting band. […] The cell line of each row appears only in tiny plot titles that cannot be read with certainty. […]

Hippo signalling pathway = experiment: Western blotting / mRNA of Hippo related proteins in MGC-803 and SGC-7901 cells; format: cell-based
Description: Phosphorylation of YAP is the process of YAP inactivation. YAP protein is inactivated (phosphorylated) by Hippo cascade pathway in cells. […] We also investigated the influence of 9i on upstream signal-regulated molecules of the Hippo pathway. […] Transcription factor TEAD interacts with YAP to express downstream substrates, the level of TEAD was not changed by compound 9i (Figures 4(A,B)). Yap entering the nucleus is a key step of substrates expression. With the treatment of compound 9i, the level of YAP inside nuclear was decreased (Figure 4(C)).
Figure 4. Influence of 9i on the Hippo signalling pathway in two gastric cancer cells. Density ratios relative to its loading control protein (β-Actin/LaminB1/GAPDH) were shown on the top of each Western blotting band. (A) The levels of Hippo related proteins, cells were treated with indicated concentrations of 9i for 12 h; (B) The levels of Hippo related proteins in different hours after the treatment with 450 nM of 9i; (C) Level of YAP in the cytoplasm and nuclear, cells were treated for 12 h with 450 nM of 9i; (D) Levels of Bcl-2 and c-Myc in MGC-803 cells after the treatment with 450 nM of 9i for different hours; (E) mRNA levels of Bcl-2 and c-My in MGC-803 cells after the treatment with 450 nM of 9i 12 h. Data were presented as mean ± SD.
2 gastric cancer cells were seeded in dishes and treated with 9i or DMSO. After 48 h, MGC-803 and SGC-7901 cells were collected and then lysed. The denatured lysates of each groups were electrophoretic separated in SDS-PAGE. Proteins were then transferred onto PVDF membranes from gels. After blocking for 2 h, membranes were incubated with primary antibodies conjugation. Then, the membranes were washed and incubated with 2nd antibodies. At last, specific proteins were detected.

## COc1ccc(S(=O)(=O)N(Cc2nc(C)c3ccccc3n2)c2cc(OC)c(OC)c(OC)c2)cc1 [Compound 9i, 4-Methoxy-N-((4-methylquinazolin-2-yl)methyl)-N-(3,4,5-trimethoxyphenyl) benzene-sulfonamide]
HCT-116 cells; Homo sapiens, HCT-116, 48 h
  IC50: 708 nM
HCT-116 cells
  IC50: 700 ± 40 nM
MGC-803 cells
  cell apoptosis: over 60%
Hippo signalling pathway; MGC-803 and SGC-7901 cells
  MST1 and SAV levels: did not show an obvious change
  level of TEAD: not changed
  level of YAP: reduced level of YAP
  p-LATS level: up-regulated
Hippo signalling pathway; MGC-803 and SGC-7901 cells, dose and time-dependent
  phosphorylation of YAP: up-regulated the phosphorylation of YAP
Hippo signalling pathway; two gastric cancer cells, mRNA and protein
  Bcl-2 and c-Myc expression: down-regulated at mRNA and protein levels
